Reference: patent US10273237B2, “Imidazopyridazine compounds useful as modulators of IL-12, IL-23 and/or IFN-α responses” (BRISTOL-MYERS SQUIBB COMPANY, priority 2013, dated 2019)
pIC50: −log10 of the molar value. Where two headings read alike, the source gives them in different places.

How the values were obtained:
[1] = test system: IL-23-stimulated Kit225 T cells with STAT-dependent luciferase reporter; experiment: Kit225 T cell assay, STAT-dependent luciferase reporter, IL-23 stimulated; assay type: cell-based, human; settings: read-out: IL-23 Kit225 Reporter, LE (IC50)
Method: (§1) Kit225 T cells with a stably-integrated STAT-dependent luciferase reporter were plated in RPMI (GIBCO) containing 10% heat-inactivated FBS (GIBCO) and 100 U/mL PenStrep (GIBCO). The cells were then stimulated with either 20 ng/mL human recombinant IL-23 or 200 U/mL human recombinant IFNα (PBL InterferonSource) for 5-6 hours. Luciferase expression was measured using the STEADY-GLO® Luciferase Assay System (PROMEGA®) according to the manufacturer's instructions.

[2] = test system: IFNα-stimulated Kit225 T cells with STAT-dependent luciferase reporter; experiment: Kit225 T cell assay, STAT-dependent luciferase reporter, IFNα stimulated; assay type: cell-based, human; settings: 5-6 hours, read-out: IFNa Kit225 Reporter, LE (IC50)
Method: as §1

[3] = 20 ng/mL human recombinant IL-23, 5-6 hours
[4] = 200 U/mL human recombinant IFNα
[5] = Homo sapiens, KIT225, 20 ng/mL human recombinant IL-23, 5-6 hours
[6] = Homo sapiens, KIT225, 200 U/mL human recombinant IFNα

| Structure (SMILES) | pIC50 [1, 3] | pIC50 [2, 4] | pIC50 [1, 5] | pIC50 [2, 6] |
| --- | --- | --- | --- | --- |
| CNc1cc(Nc2cncn(-c3cccc(C(C)O)n3)c2=O)nn2c(C(=O)NC3CCC3)cnc12 (racemic) [Example 87] | 6.66 | 6.80 | – | – |
| CCC(C)NC(=O)c1cnc2c(NC)cc(Nc3cccn(C)c3=O)nn12 (single isomer, unassigned) [Example 72] | 6.34 | 6.36 | – | – |
| CCC(C)NC(=O)c1cnc2c(NC)cc(Nc3cccn(C)c3=O)nn12 (single isomer, unassigned) [Example 73] | 6.72 | 6.92 | – | – |
| CCC(C)NC(=O)c1cnc2c(NC)cc(Nc3cccn(-c4ccc(C)nn4)c3=O)nn12 (single isomer, unassigned) [Example 75] | 6.72 | 6.89 | – | – |
| CCC(C)NC(=O)c1cnc2c(NC)cc(Nc3cncn(-c4ccccn4)c3=O)nn12 (single isomer, unassigned) [Example 76] | 6.39 | 6.25 | – | – |
| CNc1cc(Nc2cccn(C)c2=O)nn2c(C(=O)NC3(C#N)CC3)cnc12 [Example 1, N-(1-Cyanocyclopropyl)-6-(1-methyl-2-oxo-1,2-dihydropyridin-3-ylamino)-8-(methylamino)imidazo[1,2-b]pyridazine-3-carboxamide] | – | – | 6.32 | 6.51 |
| CNc1cc(Nc2cccn(-c3ccc(C#N)cc3)c2=O)nn2c(C(=O)NC3CC3)cnc12 [Example 2, 6-((1-(4-Cyanophenyl)-2-oxo-1,2-dihydropyridin-3-yl)amino)-N-cyclopropyl-8-(methylamino)imidazo[1,2-b]pyridazine-3-carboxamide] | – | – | 6.80 | 7.05 |
| CNc1cc(Nc2cccn(-c3ccccc3)c2=O)nn2c(C(=O)NC(CO)CCl)cnc12 (stereo not drawn) [Example 4, N-(1-Chloro-3-hydroxypropan-2-yl)-8-(methylamino)-6-(2-oxo-1-phenyl-1,2-dihydropyridin-3-ylamino)imidazo[1,2-b]pyridazine-3-carboxamide] | – | – | 6.28 | 6.49 |
| CNc1cc(Nc2cccn(-c3nccc(C(F)(F)F)n3)c2=O)nn2c(C(=O)NC3CCC3)cnc12 [Example 5, N-Cyclobutyl-8-(methylamino)-6-((2-oxo-1-(4-(trifluoromethyl)pyrimidin-2-yl)-1,2-dihydropyridin-3-yl)amino)imidazo[1,2-b]pyridazine-3-carboxamide] | – | – | 6.82 | 6.82 |
| CNc1cc(Nc2cccn(-c3ccccc3)c2=O)nn2c(C(=O)N[C@@H]3CCOC3)cnc12 [Example 7, (R)-8-(Methylamino)-6-((2-oxo-1-phenyl-1,2-dihydropyridin-3-yl)amino)-N-(tetrahydrofuran-3-yl)imidazo[1,2-b]pyridazine-3-carboxamide] | – | – | 6.57 | 6.52 |
| CNc1cc(Nc2ccnn(-c3ccccc3)c2=O)nn2c(C(=O)NC3CCC3)cnc12 [Example 8, N-Cyclobutyl-8-(methylamino)-6-((3-oxo-2-phenyl-2,3-dihydropyridazin-4-yl)amino)imidazo[1,2-b]pyridazine-3-carboxamide] | – | – | 6.17 | 6.42 |
| CNc1cc(Nc2cccn(C)c2=O)nn2c(C(=O)NCC(C)(C)CO)cnc12 [Example 9, N-(3-Hydroxy-2,2-dimethylpropyl)-6-((1-methyl-2-oxo-1,2-dihydropyridin-3-yl)amino)-8-(methylamino)imidazo[1,2-b]pyridazine-3-carboxamide] | – | – | 6.92 | 7.40 |
| CNc1cc(Nc2cccn(-c3ccc(F)cc3)c2=O)nn2c(C(=O)NC3CC3)cnc12 [Example 10] | 6.82 | 6.92 | – | – |
| CNc1cc(Nc2cc(F)cn(C)c2=O)nn2c(C(=O)NC3(C#N)CC3)cnc12 [Example 11] | 6.51 | 6.59 | – | – |
| CNc1cc(Nc2cccn(-c3ccc(F)cc3)c2=O)nn2c(C(=O)NC3(C#N)CC3)cnc12 [Example 12] | 6.77 | 7.00 | – | – |
| CNc1cc(Nc2cccn(-c3ccc(C#N)cc3)c2=O)nn2c(C(=O)NC3(C#N)CC3)cnc12 [Example 13] | 6.82 | 6.64 | – | – |
| CNc1cc(Nc2cccn(-c3ccc(F)cc3)c2=O)nn2c(C(=O)NCC(C)(CO)CO)cnc12 [Example 14] | 6.24 | 6.34 | – | – |
| CNc1cc(Nc2cc(F)cn(CC3CC3)c2=O)nn2c(C(=O)NC3CC3)cnc12 [Example 15] | 6.72 | 6.57 | – | – |
| CNc1cc(Nc2cc(F)cn(CC3CC3)c2=O)nn2c(C(=O)NC3(C#N)CC3)cnc12 [Example 16] | 6.40 | 6.44 | – | – |
| CNc1cc(Nc2cccn(-c3ccc(F)nc3)c2=O)nn2c(C(=O)NC3CC3)cnc12 [Example 17] | 6.62 | 6.74 | – | – |
| CNc1cc(Nc2cccn(-c3ccc(C(F)F)cc3)c2=O)nn2c(C(=O)NC3CC3)cnc12 [Example 18] | 6.32 | 6.82 | – | – |
| CNc1cc(Nc2cccn(-c3ccc(C(F)F)cc3)c2=O)nn2c(C(=O)NCC(C)(CO)CO)cnc12 [Example 19] | 6.48 | 6.40 | – | – |
| CNc1cc(Nc2cccn(-c3ccc(C(F)F)cc3)c2=O)nn2c(C(=O)NC3(C#N)CC3)cnc12 [Example 20] | 6.89 | 7.10 | – | – |
| CNc1cc(Nc2cc(F)cn(CCF)c2=O)nn2c(C(=O)NC3CC3)cnc12 [Example 21] | 6.21 | 6.96 | – | – |
| CNc1cc(Nc2cc(Cl)cn(C)c2=O)nn2c(C(=O)NC3CC3)cnc12 [Example 22] | 6.82 | 7.30 | – | – |
| CNc1cc(Nc2cc(Cl)cn(C)c2=O)nn2c(C(=O)NC3(C#N)CC3)cnc12 [Example 23] | 7.15 | 7.70 | – | – |

| Structure (SMILES) | pIC50 [1, 3] | pIC50 [2, 4] | pIC50 [1, 5] | pIC50 [2, 6] |
| --- | --- | --- | --- | --- |
| CNc1cc(Nc2cc(F)cn(C)c2=O)nn2c(C(=O)NCC(C)(C)CO)cnc12 [Example 24] | 6.82 | 7.40 | – | – |
| CNc1cc(Nc2cccn(-c3ccc(C(C)(C)O)cc3)c2=O)nn2c(C(=O)NC3CC3)cnc12 [Example 26] | 6.57 | 6.96 | – | – |
| CNc1cc(Nc2cccn(-c3ccc(C(C)(C)O)cc3)c2=O)nn2c(C(=O)NC3(C#N)CC3)cnc12 [Example 27] | 6.18 | 6.35 | – | – |
| CNc1cc(Nc2cccn(-c3ccc(F)nc3)c2=O)nn2c(C(=O)NC3(C#N)CC3)cnc12 [Example 28] | 6.22 | 6.52 | – | – |
| CNc1cc(Nc2cccn(-c3ccc(F)cc3)c2=O)nn2c(C(=O)NCC3(CO)CC3)cnc12 [Example 29] | 6.47 | 6.70 | – | – |
| CNc1cc(Nc2cc(F)cn(C)c2=O)nn2c(C(=O)NCC3(CO)CC3)cnc12 [Example 30] | 6.41 | 6.70 | – | – |
| CNc1cc(Nc2cccn(-c3ccc(F)cn3)c2=O)nn2c(C(=O)NCC(C)(C)CO)cnc12 [Example 33] | 6.55 | 6.59 | – | – |
| CNc1cc(Nc2cccn(-c3ccccn3)c2=O)nn2c(C(=O)NC3CCC3)cnc12 [Example 34] | 7.22 | 7.30 | – | – |
| CNc1cc(Nc2cccn(-c3ccc(F)cn3)c2=O)nn2c(C(=O)NC3CC3)cnc12 [Example 36] | 7.00 | 7.00 | – | – |
| CNc1cc(Nc2cccn(-c3ccc(F)cn3)c2=O)nn2c(C(=O)N[C@@H]3C[C@@H]3F)cnc12 [Example 37] | 7.70 | 7.52 | – | – |
| CNc1cc(Nc2cccn(-c3ccc(F)nc3)c2=O)nn2c(C(=O)N[C@@H]3C[C@@H]3F)cnc12 [Example 40] | 6.80 | 7.30 | – | – |
| CNc1cc(Nc2cccn(-c3ncccc3F)c2=O)nn2c(C(=O)NC3CC3)cnc12 [Example 41] | 7.10 | 7.22 | – | – |
| CNc1cc(Nc2cccn(-c3ncccc3F)c2=O)nn2c(C(=O)N[C@@H]3C[C@@H]3F)cnc12 [Example 42] | 7.30 | 7.70 | – | – |
| CNc1cc(Nc2cc(Cl)cn(C)c2=O)nn2c(C(=O)NC3(C#N)CCC3)cnc12 [Example 43] | 6.23 | 6.96 | – | – |
| CNc1cc(Nc2cccn(C3CC3)c2=O)nn2c(C(=O)NC3CC3)cnc12 [Example 44] | 6.42 | 6.89 | – | – |
| CNc1cc(Nc2cccn(C3CC3)c2=O)nn2c(C(=O)NC3(C#N)CC3)cnc12 [Example 45] | 6.43 | 6.70 | – | – |
| CNc1cc(Nc2cccn(-c3cccc(C)n3)c2=O)nn2c(C(=O)NC3CC3)cnc12 [Example 46] | 6.44 | 6.80 | – | – |
| CNc1cc(Nc2cccn(-c3cccc(C)n3)c2=O)nn2c(C(=O)NC3CCC3)cnc12 [Example 47] | 6.96 | 7.40 | – | – |
| CNc1cc(Nc2cccn(-c3cccc(C)n3)c2=O)nn2c(C(=O)N[C@@H]3C[C@@H]3F)cnc12 [Example 49] | 7.70 | 7.30 | – | – |
| CNc1cc(Nc2cc(F)cn(C3CC3)c2=O)nn2c(C(=O)NC3(C#N)CC3)cnc12 [Example 51] | 6.80 | 6.66 | – | – |
| CNc1cc(Nc2cccn(-c3ncccn3)c2=O)nn2c(C(=O)NC3CCC3)cnc12 [Example 52] | 6.68 | 6.89 | – | – |
| CNc1cc(Nc2cccn(-c3cccc(F)c3)c2=O)nn2c(C(=O)NC3(C#N)CC3)cnc12 [Example 53] | 6.77 | 7.10 | – | – |
| CNc1cc(Nc2cccn(-c3ncccn3)c2=O)nn2c(C(=O)N[C@@H]3C[C@@H]3F)cnc12 [Example 55] | 6.74 | 6.64 | – | – |
| CNc1cc(Nc2cccn(-c3ccon3)c2=O)nn2c(C(=O)NC3CCC3)cnc12 [Example 56] | 7.22 | 7.52 | – | – |
| CNc1cc(Nc2cccn(C)c2=O)nn2c(C(=O)N[C@@H]3CCOC3)cnc12 [Example 57] | 6.52 | 6.28 | – | – |
